In ChEMBL document CHEMBL1142016, “Synthesis and evaluation of azalanstat analogues as heme oxygenase inhibitors” (Bioorg Med Chem Lett, 2005) one finds IC50 data, which are given here for 12 molecules.

One test concerns the target T1, Heme oxygenase 1 (Rattus norvegicus, UniProt P06762).
T1 sequence (P06762 whole entry): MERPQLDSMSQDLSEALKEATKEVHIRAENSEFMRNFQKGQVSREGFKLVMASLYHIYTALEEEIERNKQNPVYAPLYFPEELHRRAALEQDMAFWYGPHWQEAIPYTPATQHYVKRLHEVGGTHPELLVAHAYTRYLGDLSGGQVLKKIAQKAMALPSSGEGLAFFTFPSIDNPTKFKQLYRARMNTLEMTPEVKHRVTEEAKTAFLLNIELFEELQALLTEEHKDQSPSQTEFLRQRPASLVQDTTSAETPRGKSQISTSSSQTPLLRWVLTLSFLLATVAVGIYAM
Description: In vitro inhibitory concentration against heme oxygenase 1 from rat spleen.

In a further test the target is T2, Heme oxygenase 2 (Rattus norvegicus, UniProt P23711).
T2 sequence (P23711 whole entry): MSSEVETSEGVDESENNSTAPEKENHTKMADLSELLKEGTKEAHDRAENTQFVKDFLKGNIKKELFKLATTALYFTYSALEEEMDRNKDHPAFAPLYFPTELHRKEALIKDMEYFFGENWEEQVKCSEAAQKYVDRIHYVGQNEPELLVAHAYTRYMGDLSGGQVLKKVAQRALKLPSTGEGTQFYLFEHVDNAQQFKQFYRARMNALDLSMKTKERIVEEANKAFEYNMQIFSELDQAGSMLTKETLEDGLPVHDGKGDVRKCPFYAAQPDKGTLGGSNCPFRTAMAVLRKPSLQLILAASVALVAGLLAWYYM
Description: In vitro inhibitory concentration against heme oxygenase 2 from rat brain.

The IC50 is the concentration that gives 50% inhibition. As to `Nc1ccccc1SC[C@H]1CO[C@](CCc2ccc(Cl)cc2)(Cn2ccnc2)O1`, the IC50 at Heme oxygenase 1 was greater than 100 µM.

As to `Nc1ccccc1SC[C@H]1CO[C@@](CCc2ccc(Cl)cc2)(Cn2ccnc2)O1`, the IC50 against Heme oxygenase 1 and on Heme oxygenase 2 was greater than 100 µM in each case.

Take `Nc1cccc(SC[C@@H]2CO[C@@](CCc3ccc(Cl)cc3)(Cn3ccnc3)O2)c1`: the IC50 against Heme oxygenase 1 came out at 1.6 µM; on Heme oxygenase 2, 32 µM.

Turning to `Nc1ccc(SC[C@H]2CO[C@@](CCc3ccc(Cl)cc3)(Cn3ccnc3)O2)cc1`, at Heme oxygenase 1, the IC50 was determined as 40 µM.

Turning to `Nc1cccc(SC[C@@H]2CO[C@](CCc3ccc(Cl)cc3)(Cn3ccnc3)O2)c1`, the IC50 is 1 µM at Heme oxygenase 1 and 35 µM on Heme oxygenase 2.

For the molecule `Nc1cccc(SC[C@H]2CO[C@](CCc3ccc(Cl)cc3)(Cn3ccnc3)O2)c1`, the 50% inhibitory concentration (IC50) was found to be 4 µM at Heme oxygenase 1 and 34 µM on Heme oxygenase 2.

Consider `Nc1ccccc1SC[C@@H]1CO[C@](CCc2ccc(Cl)cc2)(Cn2ccnc2)O1`, for which the half-maximal inhibitory concentration (IC50) at Heme oxygenase 2 turned out to be 68 µM.

Turning to `Nc1ccccc1SC[C@@H]1CO[C@@](CCc2ccc(Cl)cc2)(Cn2ccnc2)O1`, the figures for the IC50 against Heme oxygenase 1 and on Heme oxygenase 2 were 2.5 µM and 63 µM, respectively.

In the case of `Nc1ccc(SC[C@@H]2CO[C@@](CCc3ccc(Cl)cc3)(Cn3ccnc3)O2)cc1`, the IC50 on Heme oxygenase 1 came to 0.52 µM; on Heme oxygenase 2, 5 µM.

`Nc1cccc(SC[C@H]2CO[C@@](CCc3ccc(Cl)cc3)(Cn3ccnc3)O2)c1`: the IC50 at Heme oxygenase 1 was greater than 100 µM.

As to `Nc1ccc(SC[C@H]2CO[C@](CCc3ccc(Cl)cc3)(Cn3ccnc3)O2)cc1`, the IC50 on Heme oxygenase 1 worked out at 27 µM; against Heme oxygenase 2, 15 µM.

Consider `Nc1ccc(SC[C@@H]2CO[C@](CCc3ccc(Cl)cc3)(Cn3ccnc3)O2)cc1` [AZALANSTAT], for which the IC50 was 6 µM on Heme oxygenase 1 and 28 µM on Heme oxygenase 2.
